Columns and labels:
Test in all cases: relative viability (nuclei count vs DMSO), 5 days (fraction); higher = more cells survive
Vemurafenib + Luminespib = compound: CCCS(=O)(=O)Nc1ccc(F)c(C(=O)c2c[nH]c3ncc(-c4ccc(Cl)cc4)cc23)c1F [Vemurafenib] + CCNC(=O)c1noc(-c2cc(C(C)C)c(O)cc2O)c1-c1ccc(CN2CCOCC2)cc1 [Luminespib] (partner 0.01 µM)
Summary of the method: (§1)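 After 5 days of treatment, lung cancer cells in 1536-well plates were fixed and stained in a single step (final 0.05% Triton X-100, 1% formaldehyde, 1 ug/ml Hoechst) and their nuclei counted on 4× images. Treatment had been applied by pin tool the day after seeding as one drug alone or as a fixed anchor-drug dose with five library-drug doses (not always all listed) in √10 steps. Relative viability is the nuclei count of treated wells divided by that of vehicle wells, and values are medians of duplicate plates.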

Vemurafenib + OSI-027 = compound: CCCS(=O)(=O)Nc1ccc(F)c(C(=O)c2c[nH]c3ncc(-c4ccc(Cl)cc4)cc23)c1F [Vemurafenib] + COc1cccc2cc(-c3nc([C@H]4CC[C@H](C(=O)O)CC4)n4ncnc(N)c34)[nH]c12 [OSI-027] (partner 0.5 µM)
Summary of the method: as §1

Vemurafenib + Linsitinib = compound: CCCS(=O)(=O)Nc1ccc(F)c(C(=O)c2c[nH]c3ncc(-c4ccc(Cl)cc4)cc23)c1F [Vemurafenib] + C[C@]1(O)C[C@@H](c2nc(-c3ccc4ccc(-c5ccccc5)nc4c3)c3c(N)nccn32)C1 [Linsitinib] (partner 1 µM)
Summary of the method: as §1

OSI-027 + Palbociclib = compound: COc1cccc2cc(-c3nc([C@H]4CC[C@H](C(=O)O)CC4)n4ncnc(N)c34)[nH]c12 [OSI-027] + CC(=O)c1c(C)c2cnc(Nc3ccc(N4CCNCC4)cn3)nc2n(C2CCCC2)c1=O [Palbociclib] (partner 0.5 µM)
Summary of the method: as §1

| Cell Line | relative viability (Vemurafenib + Luminespib; first compound 0.03162 µM) | relative viability (Vemurafenib + Luminespib; first compound 0.1 µM) | relative viability (Vemurafenib + Luminespib; first compound 0.3162 µM) | relative viability (Vemurafenib + Luminespib; first compound 1 µM) | relative viability (Vemurafenib + OSI-027; first compound 0.03162 µM) | relative viability (Vemurafenib + OSI-027; first compound 0.1 µM) | relative viability (Vemurafenib + OSI-027; first compound 0.3162 µM) | relative viability (Vemurafenib + OSI-027; first compound 1 µM) | relative viability (Vemurafenib + Linsitinib; first compound 0.03162 µM) | relative viability (Vemurafenib + Linsitinib; first compound 0.3162 µM) | relative viability (Vemurafenib + Linsitinib; first compound 1 µM) | relative viability (OSI-027 + Palbociclib; first compound 0.01 µM) | relative viability (OSI-027 + Palbociclib; first compound 0.03162 µM) | relative viability (OSI-027 + Palbociclib; first compound 0.1 µM) | relative viability (OSI-027 + Palbociclib; first compound 0.3162 µM) | relative viability (OSI-027 + Palbociclib; first compound 1 µM) | relative viability (Vemurafenib + Linsitinib; first compound 0.1 µM) |
| --- | --- | --- | --- | --- | --- | --- | --- | --- | --- | --- | --- | --- | --- | --- | --- | --- | --- |
| HARA | 0.482 | 0.6 | 0.638 | 0.814 | 0.428 | 0.186 | 0.407 | 0.229 | 0.942 | 0.987 | 0.771 | 0.307 | 0.272 | 0.196 | 0.195 | 0.165 |  |
| A-427 | 0.846 | 0.919 | 0.627 | 0.87 | 0.488 | 0.404 | 0.453 | 0.466 | 1.09 | 1.03 | 1.15 | 0.538 | 0.516 | 0.453 | 0.414 | 0.386 | 1.1 |
| NCI-H2023 | 0.731 | 0.628 | 0.827 | 0.766 | 0.316 | 0.293 | 0.408 | 0.316 | 0.655 | 0.831 | 0.666 | 0.36 | 0.326 | 0.249 | 0.22 | 0.161 | 0.552 |
| NCI-H2347 | 0.626 | 0.164 | 0.552 | 0.71 | 0.436 | 0.37 | 0.577 | 0.367 | 0.941 | 0.76 | 0.964 | 0.41 | 0.386 | 0.392 | 0.358 | 0.392 | 1.01 |
| NCI-H1975 | 0.295 | 0.219 |  | 0.287 | 0.647 | 0.631 | 0.4 | 0.564 | 1 | 0.725 | 1.05 | 0.601 | 0.578 | 0.549 | 0.598 | 0.359 | 0.962 |
| HCC-15 | 0.203 | 0.484 | 0.16 | 0.315 | 0.648 | 0.73 |  | 0.52 | 0.855 | 0.964 | 0.824 | 0.689 | 0.67 | 0.717 | 0.591 | 0.402 | 0.743 |
| COR-L23 | 0.571 | 0.744 | 0.632 | 0.688 | 0.662 | 0.777 | 0.579 | 0.646 | 0.774 | 0.789 | 1.01 | 0.304 | 0.3 | 0.295 | 0.255 | 0.171 | 0.733 |
| NCI-H23 | 0.194 | 0.211 | 0.166 | 0.228 | 0.566 | 0.543 | 0.547 | 0.349 | 0.621 | 0.715 | 0.59 | 0.439 | 0.552 | 0.414 | 0.25 | 0.237 | 0.605 |
| NCI-H441 | 0.373 | 0.245 | 0.392 | 0.316 | 0.57 | 0.476 | 0.584 | 0.418 | 0.555 | 0.491 | 0.345 | 0.165 | 0.205 | 0.178 | 0.146 | 0.166 | 0.527 |
| NCI-H1734 | 0.196 | 0.183 | 0.233 | 0.2 | 0.583 | 0.568 | 0.49 | 0.507 | 0.859 | 0.759 | 0.808 | 0.396 | 0.369 | 0.356 | 0.311 | 0.255 | 0.847 |
| LXF-289 | 0.647 | 0.584 | 0.661 | 0.689 | 0.758 | 0.668 | 0.622 | 0.772 | 0.877 | 0.992 | 1.04 | 0.605 | 0.677 | 0.66 | 0.599 | 0.345 | 0.919 |
| NCI-H838 | 0.291 | 0.349 |  | 0.352 | 0.367 | 0.404 |  | 0.436 | 0.979 |  | 1.14 | 0.203 | 0.195 | 0.191 | 0.165 | 0.168 | 1.01 |
| NCI-H1993 | 0.465 |  | 0.773 | 0.86 | 0.523 |  | 0.607 | 0.494 | 0.668 | 0.882 | 0.746 | 0.613 | 0.491 | 0.414 | 0.432 | 0.381 |  |
| NCI-H1437 | 1.09 | 1.07 | 1.2 | 1.12 | 0.857 | 0.85 | 0.855 | 0.875 | 0.972 | 0.918 | 0.871 | 0.286 | 0.324 | 0.309 | 0.357 | 0.22 | 0.959 |
| NCI-H647 | 0.157 | 0.165 | 0.138 | 0.212 | 0.636 | 0.629 | 0.477 | 0.564 | 1.08 | 1.03 | 1.14 | 0.389 | 0.371 | 0.351 | 0.354 | 0.155 | 0.971 |
| ABC-1 |  |  |  | 0.779 | 0.417 | 0.435 | 0.539 | 0.474 | 0.711 | 0.942 | 0.853 | 0.828 | 0.531 | 0.476 | 0.444 | 0.553 | 0.753 |

From the supplement of paper PMC10307832
